Measurements: US8362022B2, “Selective subtype alpha 2 adrenergic agents and methods for use thereof” (Allergan, Inc., priority 2008, dated 2013)

Experiments:
[1] = target: T1, alpha 2B receptor (Homo sapiens, UniProt P18089); experiment: RSAT assay (Receptor Selection and Amplification Technology), Alpha 2B; type: cell-based; details: RSAT, Table 1
T1 construct: expressed in transfected cells; host or cells: NIH-3T3
T1 sequence (P18089 1-450): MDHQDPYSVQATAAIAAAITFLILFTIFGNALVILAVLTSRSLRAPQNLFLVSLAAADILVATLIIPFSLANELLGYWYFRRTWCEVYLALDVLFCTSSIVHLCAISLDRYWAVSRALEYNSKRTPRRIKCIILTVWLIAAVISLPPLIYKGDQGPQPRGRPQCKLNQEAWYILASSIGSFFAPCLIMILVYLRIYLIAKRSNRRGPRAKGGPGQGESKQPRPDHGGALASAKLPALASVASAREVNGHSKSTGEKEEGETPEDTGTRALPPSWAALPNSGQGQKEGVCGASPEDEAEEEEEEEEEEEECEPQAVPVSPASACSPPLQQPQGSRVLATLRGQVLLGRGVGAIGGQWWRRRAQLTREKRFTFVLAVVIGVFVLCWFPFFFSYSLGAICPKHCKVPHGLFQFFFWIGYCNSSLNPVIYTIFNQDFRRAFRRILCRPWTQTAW
Protocol: The RSAT assay measures a receptor-mediated loss of contact inhibition that results in selective proliferation of receptor-containing cells in a mixed population of confluent cells. The increase in cell number is assessed with an appropriate transfected marker gene such as β-galactosidase, the activity of which can be easily measured in a 96-well format. Receptors that activate the G protein, Gq, elicit this response. Alpha 2 receptors, which normally couple to Gi, activate the RSAT response when coexpressed with a hybrid Gq protein that has a Gi receptor recognition domain, called Gq/i5.
NIH-3T3 cells are plated at a density of 2×10^6 cells in 15 cm dishes and maintained in Dulbecco's modified Eagle's medium supplemented with 10% calf serum. One day later, cells are cotransfected by calcium phosphate precipitation with mammalian expression plasmids encoding p-SV-β-galactosidase (5-10 μg), receptor (1-2 μg) and G protein (1-2 μg). 40 μg salmon sperm DNA may also be included in the transfection mixture. […] Cells are thawed and 100 μl added to 100 μL aliquots of various concentrations of drugs in triplicate in 96-well dishes. Incubations continue 72-96 hr at 37° C. After washing with phosphate-buffered saline, β-galactosidase enzyme activity is determined by adding 200 μL of the chromogenic substrate (consisting of 3.5 mM o-nitrophenyl-β-D-galactopyranoside and 0.5% nonidet P-40 in phosphate buffered saline), incubating overnight at 30° C. and measuring optical density at 420 nm. The absorbance is a measure of enzyme activity, which depends on cell number and reflects a receptor-mediated cell proliferation. The efficacy or intrinsic activity is calculated as a ratio of the maximal effect of the drug to the maximal effect of a standard full agonist for each receptor subtype. Brimonidine, the chemical structure of which is shown below, is used as the standard agonist for the alpha 2B and alpha 2C receptors. […] NA stands for “not active” at concentrations less than 3-10 micromolar.

[2] = system: Chung model of neuropathic pain; experiment: Chung model of neuropathic pain (tactile allodynia, von Frey hairs); type: in vivo; details: rats
Text: A model in accordance with Kim and Chung 1992, Pain […], pp 355-363 (Chung model), for chronic pain (in particular peripheral neuropathy) involves the surgical ligation of the L5 (and optionally the L6) spinal nerves on one side in experimental animals. Rats recovering from the surgery gain weight and display a level of general activity similar to that of normal rats. However, these rats develop abnormalities of the foot, wherein the hindpaw is moderately everted and the toes are held together. More importantly, the hindpaw on the side affected by the surgery appears to become sensitive to pain from low-threshold mechanical stimuli, such as that producing a faint sensation of touch in a human, within about 1 week following surgery. This sensitivity to normally non-painful touch is called “tactile allodynia” and lasts for at least two months. The response includes lifting the affected hindpaw to escape from the stimulus, licking the paw and holding it in the air for many seconds. None of these responses is normally seen in the control group.
Rats are anesthetized before surgery. The surgical site is shaved and prepared either with betadine or Novacaine. Incision is made from the thoracic vertebra XIII down toward the sacrum. Muscle tissue is separated from the spinal vertebra (left side) at the L4-S2 levels. The L6 vertebra is located and the transverse process is carefully removed with a small rongeur to expose the L4-L6 spinal nerves. The L5 and L6 spinal nerves are isolated and tightly ligated with 6-0 silk thread. The same procedure is done on the right side as a control, except no ligation of the spinal nerves is performed.
A complete hemostasis is confirmed, then the wounds are sutured. A small amount of antibiotic ointment is applied to the incised area, and the rat is transferred to the recovery plastic cage under a regulated heat-temperature lamp. On the day of the experiment, at least seven days after the surgery, typically six rats per test group are administered the test drugs by intraperitoneal (i.p.) injection or oral gavage. For i.p. injection, the compounds are formulated in approximately 10 to 50% DMSO and given in a volume of 1 ml/kg body weight.
Tactile allodynia is measured prior to and 30 minutes after drug administration using von Frey hairs that are a series of fine hairs with incremental differences in stiffness. Rats are placed in a plastic cage with a wire mesh bottom and allowed to acclimate for approximately 30 minutes. The von Frey hairs are applied perpendicularly through the mesh to the mid-plantar region of the rats' hindpaw with sufficient force to cause slight buckling and held for 6-8 seconds. The applied force has been calculated to range from 0.41 to 15.1 grams. If the paw is sharply withdrawn, it is considered a positive response. A normal animal will not respond to stimuli in this range, but a surgically ligated paw will be withdrawn in response to a 1-2 gram hair. The 50% paw withdrawal threshold is determined using the method of Dixon, W. J., Ann. Rev. Pharmacol. Toxicol. 20:441-462 (1980). The post-drug threshold is compared to the pre-drug threshold and the percent reversal of tactile sensitivity is calculated based on a normal threshold of 15.1 grams. The results are expressed in percent (%) MPE, where the MPE value reflects the percentage reversal of pain threshold to that of a normal animal (100%).

SMILES: Cc1cccc(C(Cc2cccnc2)/N=C2/NCCO2)c1C (centres unmarked) [Compound 21, 1-(2,3-Dimethylphenyl)-N-(oxazolidin-2-ylidene)-2-(pyridin-3-yl)ethanamine]
- EC50 ([1]; transfected NIH-3T3 cells with Gq/i5, read-out: potency nM (EC50) Alpha 2B): 5 nM
- Intrinsic Activity efficacy Alpha 2B ([1]; value in parentheses, ratio of maximal effect to that of brimonidine): 1.2
- % Pain Reversal ± SEM ([2]; 0.10 mg i.p., 30 min): 27 ± 5%
- % Pain Reversal ± SEM ([2]; 0.10 mg i.p., 60 min): ~10%
- % Pain Reversal ± SEM ([2]; 0.30 mg i.p., 30 min): 60.1 ± 12.8%
- % Pain Reversal ± SEM ([2]; 0.30 mg i.p., 60 min): 21.5 ± 6.1%
- % Pain Reversal ± SEM ([2]; 1.0 mg i.p., 30 min): 95.9 ± 4.1%
- % Pain Reversal ± SEM ([2]; 1.0 mg i.p., 60 min): 77.0 ± 7.6%
